# Source: paper PMC8388879 (Antioxidants, 2021)
# Tests used:
# [1] = molecular target: mushroom TYR (tyrosinase); assay: dopachrome formation from L-DOPA (A475), commercial mushroom TYR; IC50 […] at […] L-DOPA, […] at […]; also traps dopaquinone; type: biochemical
# human TYR (tyrosinase) = molecular target: T1, human TYR (tyrosinase) (Homo sapiens, UniProt P14679); assay: dopachrome formation (A475) in lysate of HEK293 cells expressing human TYR; […] inhibition at […] (dopaquinone trapping may contribute); type: cell-based
# T1 sequence (P14679 19-529): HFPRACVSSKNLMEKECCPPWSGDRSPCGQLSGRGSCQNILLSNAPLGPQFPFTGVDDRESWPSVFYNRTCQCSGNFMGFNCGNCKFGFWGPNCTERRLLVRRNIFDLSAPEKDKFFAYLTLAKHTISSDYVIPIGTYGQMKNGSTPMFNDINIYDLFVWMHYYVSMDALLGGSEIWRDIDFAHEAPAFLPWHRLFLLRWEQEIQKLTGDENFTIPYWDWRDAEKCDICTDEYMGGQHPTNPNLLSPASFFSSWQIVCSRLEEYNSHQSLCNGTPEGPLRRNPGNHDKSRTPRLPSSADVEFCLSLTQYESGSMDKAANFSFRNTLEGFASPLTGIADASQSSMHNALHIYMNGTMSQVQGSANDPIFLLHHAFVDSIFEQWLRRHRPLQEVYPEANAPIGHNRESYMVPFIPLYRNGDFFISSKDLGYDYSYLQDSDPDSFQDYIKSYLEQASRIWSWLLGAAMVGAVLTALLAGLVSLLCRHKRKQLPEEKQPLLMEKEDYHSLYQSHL
SMILES,IC50 [1],inhibition at 200 µM (human TYR (tyrosinase))
"NC(=O)[C@@H](N)CS [C-NH2, L-Cysteinamide]",115 µM,–
N[C@@H](CS)C(=O)O [L-cysteine],–,70%
